{"source": "ChEMBL document CHEMBL5352470", "about": "“RS6077 induces mitotic arrest and selectively activates cell death in human cancer cell lines and in a lymphoma tumor in vivo” (Eur J Med Chem, 2023)", "key": {"HeLa [1]": {"tested_on": "HeLa", "assay": "Antiproliferative activity against human HeLa cells assessed as inhibition of cell growth measured for 48 hrs by MTT assay", "format": "functional, cell-based"}, "TERT-RPE1 [2]": {"tested_on": "TERT-RPE1", "assay": "Induction of cell cycle arrest in human TERT-RPE1 cells assessed as accumulation of cells at G1 phase at 1000 nM incubated for 72 hrs by annexin V-FITC and PI staining based flow cytometry analysis", "format": "functional"}, "TERT-RPE1 [3]": {"tested_on": "TERT-RPE1", "assay": "Induction of cell cycle arrest in human TERT-RPE1 cells assessed as accumulation of cells at S phase at 100 nM incubated for 72 hrs by annexin V-FITC and PI staining based flow cytometry analysis", "format": "functional"}, "TERT-RPE1 [4]": {"tested_on": "TERT-RPE1", "assay": "Induction of cell cycle arrest in human TERT-RPE1 cells assessed as accumulation of cells at S phase at 2500 nM incubated for 72 hrs by annexin V-FITC and PI staining based flow cytometry analysis", "format": "functional"}, "HeLa [5]": {"tested_on": "HeLa", "assay": "Induction of cell cycle arrest in human HeLa cells assessed as accumulation of cells at G1 phase at 100 nM incubated for 72 hrs by annexin V-FITC and PI staining based flow cytometry analysis", "format": "functional"}, "HeLa [6]": {"tested_on": "HeLa", "assay": "Induction of cell cycle arrest in human HeLa cells assessed as accumulation of cells at G1 phase at 1000 nM incubated for 72 hrs by annexin V-FITC and PI staining based flow cytometry analysis", "format": "functional"}, "HeLa [7]": {"tested_on": "HeLa", "assay": "Induction of cell cycle arrest in human HeLa cells assessed as accumulation of cells at S phase at 1000 nM incubated for 72 hrs by annexin V-FITC and PI staining based flow cytometry analysis", "format": "functional"}, "HeLa [8]": {"tested_on": "HeLa", "assay": "Induction of cell cycle arrest in human HeLa cells assessed as accumulation of cells at S phase at 2500 nM incubated for 72 hrs by annexin V-FITC and PI staining based flow cytometry analysis", "format": "functional"}, "HeLa [9]": {"tested_on": "HeLa", "assay": "Induction of cell cycle arrest in human HeLa cells assessed as accumulation of cells at G2/M phase at 100 nM incubated for 72 hrs by annexin V-FITC and PI staining based flow cytometry analysis", "format": "functional"}, "HeLa [10]": {"tested_on": "HeLa", "assay": "Induction of cell cycle arrest in human HeLa cells assessed as accumulation of cells at G2/M phase at 2500 nM incubated for 72 hrs by annexin V-FITC and PI staining based flow cytometry analysis", "format": "functional"}, "AHH-1 [11]": {"tested_on": "AHH-1", "assay": "Induction of cell cycle arrest in human AHH-1 cells assessed as accumulation of cells at S phase at 100 nM incubated for 72 hrs by annexin V-FITC and PI staining based flow cytometry analysis", "format": "functional"}, "AHH-1 [12]": {"tested_on": "AHH-1", "assay": "Induction of cell cycle arrest in human AHH-1 cells assessed as accumulation of cells at S phase at 1000 nM incubated for 72 hrs by annexin V-FITC and PI staining based flow cytometry analysis", "format": "functional"}, "AHH-1 [13]": {"tested_on": "AHH-1", "assay": "Induction of cell cycle arrest in human AHH-1 cells assessed as accumulation of cells at G2/M phase at 2500 nM incubated for 72 hrs by annexin V-FITC and PI staining based flow cytometry analysis", "format": "functional"}, "TERT-RPE1 [14]": {"tested_on": "TERT-RPE1", "assay": "Induction of cell cycle arrest in human RPE-1 cells assessed as accumulation of cells at G2 phase incubated for 72 hrs by annexin V-FITC and PI staining based flow cytometry analysis", "format": "functional"}, "TERT-RPE1 [15]": {"tested_on": "TERT-RPE1", "assay": "Induction of apoptosis in human RPE-1 cells assessed as early apoptotic cells at 100 to 2500 nM measured after 72 hrs by annexin V-FITC and PI staining based flow cytometry analysis", "format": "functional, cell-based", "conditions": "dose 100-2500 nM"}, "AHH-1 [16]": {"tested_on": "AHH-1", "assay": "Induction of apoptosis in human AHH-1 cells at 100 nM measured after 72 hrs by annexin V-FITC and PI staining based flow cytometry analysis", "format": "functional"}, "AHH-1 [17]": {"tested_on": "AHH-1", "assay": "Induction of apoptosis in human AHH-1 cells at 1000 to 2500 nM measured after 72 hrs by annexin V-FITC and PI staining based flow cytometry analysis", "format": "functional", "conditions": "dose 1000-2500 nM"}, "KARPAS-422": {"tested_on": "KARPAS-422", "assay": "Antiproliferative activity against human KARPAS-422 cells assessed as inhibition of cell growth measured for 72 hrs by MTT assay", "format": "functional, cell-based", "conditions": "KARPAS-422, 72 h"}, "Z-138": {"tested_on": "Z-138", "assay": "Antiproliferative activity against human Z138 cells assessed as inhibition of cell growth measured for 72 hrs by MTT assay", "format": "functional, cell-based", "conditions": "Z-138, 72 h"}, "Maver1": {"tested_on": "Maver1", "assay": "Antiproliferative activity against human MAVER-1 cells assessed as inhibition of cell growth measured for 72 hrs by MTT assay", "format": "functional, cell-based", "conditions": "Maver1, 72 h"}, "TMD8": {"tested_on": "TMD8", "assay": "Antitumor activity against human TMD8 cells xenografted in NOD/SCID mouse assessed as reduction in tumor volume at 100 mg/kg, po administered for 5 days and measured on day 6", "format": "functional", "conditions": "time 6 day"}, "[18]": {"assay": "Toxicity in NOD/SCID mouse assessed as reduction in body condition score at 100 mg/kg, po administered for 5 days", "format": "organism-based", "conditions": "in vivo, 120 h, time 5 day"}, "[19]": {"assay": "Metabolic stability in mouse liver microsome assessed as intrinsic clearance measured upto 60 mins by LC-MS/MS analysis", "format": "ADME", "conditions": "liver microsomes, read-out: CLH"}, "[20]": {"assay": "Metabolic stability in mouse liver microsome assessed as half life measured upto 60 mins by LC-MS/MS analysis", "format": "ADME", "conditions": "liver microsomes"}, "[21]": {"assay": "Toxicity in human T cells derived from human PBMC assessed as late apoptotic cells at 0.1 uM measured for 48 hrs by annexin V-FITC and PI staining based flow cytometry analysis (reference value: 13.5 to […] %)", "conditions": "t-cell"}, "[22]": {"assay": "Toxicity in human T cells derived from human PBMC assessed as necrotic cells at 0.1 uM measured for 48 hrs by annexin V-FITC and PI staining based flow cytometry analysis (reference value: 0.31 to 0.48 %)", "conditions": "t-cell"}, "[23]": {"assay": "Toxicity in human T cells derived from human PBMC assessed as viable cells at 1 uM measured for 48 hrs by annexin V-FITC and PI staining based flow cytometry analysis (reference value: 77.5 to 79.5 %)", "format": "cell-based, T-cell", "conditions": "read-out: Activity"}, "[24]": {"assay": "Toxicity in human T cells derived from human PBMC assessed as early apoptotic cells at 1 uM measured for 48 hrs by annexin V-FITC and PI staining based flow cytometry analysis (reference value: 6.75 to 8.22 %)", "conditions": "t-cell"}, "[25]": {"assay": "Toxicity in human T cells derived from human PBMC assessed as late apoptotic cells at 1 uM measured for 48 hrs by annexin V-FITC and PI staining based flow cytometry analysis (reference value: 13.5 to […] %)", "conditions": "t-cell"}, "[26]": {"assay": "Toxicity in human T cells derived from human PBMC assessed as necrotic cells at 1 uM measured for 48 hrs by annexin V-FITC and PI staining based flow cytometry analysis (reference value: 0.31 to 0.48 %)", "conditions": "t-cell"}, "[27]": {"assay": "Toxicity in human T cells derived from human PBMC assessed as viable cells at 2.5 uM measured for 48 hrs by annexin V-FITC and PI staining based flow cytometry analysis (reference value: 77.5 to 79.5 %)", "format": "cell-based, T-cell", "conditions": "read-out: Activity"}, "[28]": {"assay": "Toxicity in human T cells derived from human PBMC assessed as early apoptotic cells at 0.1 uM measured for 72 hrs by annexin V-FITC and PI staining based flow cytometry analysis (reference value: 9.70 to […])", "conditions": "t-cell"}, "[29]": {"assay": "Toxicity in human T cells derived from human PBMC assessed as early apoptotic cells at 1 uM measured for 72 hrs by annexin V-FITC and PI staining based flow cytometry analysis (reference value: 9.70 to […])", "conditions": "t-cell"}}, "note": "The source made the active and inactive calls. The calls are words filed in the database; no cut-off is given here.", "data": [{"smiles": "COc1cc(C(=O)c2ccn(-c3ncnc4[nH]ccc34)c2)cc(OC)c1OC", "values": [{"measurement": "IC50", "setting": "HeLa [1]", "value": 35.8, "unit": "nM"}, {"measurement": "Activity", "setting": "TERT-RPE1 [2]", "value": 13.3, "unit": "%"}, {"measurement": "Activity", "setting": "TERT-RPE1 [3]", "value": 2.3, "unit": "%"}, {"measurement": "Activity", "setting": "TERT-RPE1 [4]", "value": 7.3, "unit": "%"}, {"measurement": "Activity", "setting": "HeLa [5]", "value": 28.5, "unit": "%"}, {"measurement": "Activity", "setting": "HeLa [6]", "value": 22.2, "unit": "%"}, {"measurement": "Activity", "setting": "HeLa [7]", "value": 44.1, "unit": "%"}, {"measurement": "Activity", "setting": "HeLa [8]", "value": 48.7, "unit": "%"}, {"measurement": "Activity", "setting": "HeLa [9]", "value": 28.3, "unit": "%"}, {"measurement": "Activity", "setting": "HeLa [10]", "value": 34.4, "unit": "%"}, {"measurement": "Activity", "setting": "AHH-1 [11]", "value": 27.2, "unit": "%"}, {"measurement": "Activity", "setting": "AHH-1 [12]", "value": 18.4, "unit": "%"}, {"measurement": "Activity", "setting": "AHH-1 [13]", "value": 69.7, "unit": "%"}, {"measurement": "Activity", "setting": "TERT-RPE1 [14]", "value": "inactive"}, {"measurement": "Activity", "setting": "TERT-RPE1 [15]", "value": "Active"}, {"measurement": "Activity", "setting": "AHH-1 [16]", "value": 60, "unit": "%"}, {"measurement": "Activity", "setting": "AHH-1 [17]", "value": 80, "unit": "%"}, {"measurement": "IC50", "setting": "KARPAS-422", "value": 36.3, "unit": "nM"}, {"measurement": "IC50", "setting": "Z-138", "value": 23.6, "unit": "nM"}, {"measurement": "IC50", "setting": "Maver1", "value": 63.1, "unit": "nM"}, {"measurement": "Activity", "setting": "TMD8", "value": 407, "unit": "mm3"}, {"measurement": "Activity", "setting": "[18]", "value": "Non-Toxic"}, {"measurement": "microsomal CLint", "setting": "[19]", "value": 96, "unit": "µL/min/mg"}, {"measurement": "half-life", "setting": "[20]", "value": 14.7, "unit": "min"}, {"measurement": "Activity", "setting": "[21]", "value": 13.3, "unit": "%"}, {"measurement": "Activity", "setting": "[22]", "value": 0.28, "unit": "%"}, {"measurement": "viability at 48 h, 1 µM", "setting": "[23]", "value": 74.9, "unit": "%"}, {"measurement": "Activity", "setting": "[24]", "value": 6.49, "unit": "%"}, {"measurement": "Activity", "setting": "[25]", "value": 12.7, "unit": "%"}, {"measurement": "Activity", "setting": "[26]", "value": 0.24, "unit": "%"}, {"measurement": "viability at 48 h, 2.5 µM", "setting": "[27]", "value": 72.7, "unit": "%"}, {"measurement": "Activity", "setting": "[28]", "value": 9.7, "unit": "%"}, {"measurement": "Activity", "setting": "[29]", "value": 11.6, "unit": "%"}]}]}
